The numbers were not newly measured in US8354502B2, “Bioactive peptides identified in enzymatic hydrolyzates of milk caseins and method of obtaining same” (Consejo Superior de Investigaciones Cientificas, priority 2005, dated 2013), which cites them from elsewhere.

One may read the IC50 as the concentration that inhibits the measured activity by half.

In the data set the target is T1, angiotensin-converting enzyme (ACE) (Oryctolagus cuniculus, UniProt P12822).
T1 sequence (P12822 34-1310): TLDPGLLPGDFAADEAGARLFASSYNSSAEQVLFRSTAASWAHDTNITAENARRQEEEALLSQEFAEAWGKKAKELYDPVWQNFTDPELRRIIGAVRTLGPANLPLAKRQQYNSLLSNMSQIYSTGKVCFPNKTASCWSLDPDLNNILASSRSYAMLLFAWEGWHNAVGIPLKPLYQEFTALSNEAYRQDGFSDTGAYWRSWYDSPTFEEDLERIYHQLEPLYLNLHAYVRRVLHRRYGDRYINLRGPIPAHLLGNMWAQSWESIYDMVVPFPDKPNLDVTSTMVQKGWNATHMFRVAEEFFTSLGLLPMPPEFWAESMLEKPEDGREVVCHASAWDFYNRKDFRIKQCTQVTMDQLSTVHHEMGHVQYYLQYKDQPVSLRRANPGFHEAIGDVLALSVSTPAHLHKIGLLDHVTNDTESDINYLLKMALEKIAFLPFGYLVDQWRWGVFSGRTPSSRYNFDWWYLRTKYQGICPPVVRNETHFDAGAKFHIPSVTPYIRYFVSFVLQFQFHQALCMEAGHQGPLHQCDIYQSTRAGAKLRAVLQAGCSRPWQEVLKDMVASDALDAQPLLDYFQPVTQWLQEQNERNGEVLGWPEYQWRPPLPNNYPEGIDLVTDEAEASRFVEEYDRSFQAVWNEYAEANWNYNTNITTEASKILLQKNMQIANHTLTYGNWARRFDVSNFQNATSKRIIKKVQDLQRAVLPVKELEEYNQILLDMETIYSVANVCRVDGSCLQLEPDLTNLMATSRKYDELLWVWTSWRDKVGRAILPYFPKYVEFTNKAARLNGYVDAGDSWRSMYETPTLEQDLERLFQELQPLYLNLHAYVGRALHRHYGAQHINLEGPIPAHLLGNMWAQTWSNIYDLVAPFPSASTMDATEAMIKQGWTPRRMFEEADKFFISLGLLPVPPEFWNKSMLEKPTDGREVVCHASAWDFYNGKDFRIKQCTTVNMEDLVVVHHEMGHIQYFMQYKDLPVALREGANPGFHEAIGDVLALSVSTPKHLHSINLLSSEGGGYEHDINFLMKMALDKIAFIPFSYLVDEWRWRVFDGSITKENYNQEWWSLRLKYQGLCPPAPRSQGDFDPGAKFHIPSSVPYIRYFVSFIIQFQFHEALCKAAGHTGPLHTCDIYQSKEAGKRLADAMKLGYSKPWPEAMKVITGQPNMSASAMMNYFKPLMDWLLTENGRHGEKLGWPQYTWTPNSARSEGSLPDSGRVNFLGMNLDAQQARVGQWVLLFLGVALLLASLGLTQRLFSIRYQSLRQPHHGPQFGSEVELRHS
The note with it: peptides from Manchego cheese, Gómez-Ruiz et al. 2004; read-out: ACE-inhibitory activity IC50; cited from earlier work.

As for “VRYL [SEQ. ID. No. 11, previously identified 205-208 fragment of ovine αs2-casein from Manchego cheese]”, the half-inhibitory concentration (IC50) was 24.1 µM.
